From BigSolDB 2.1

O=C(Nc1ccncc1)c1cc(C(=O)Nc2ccncc2)cc(C(=O)Nc2ccncc2)c1
solubility (mole fraction)
Details	283.15 K	288.15 K	293.15 K	298.15 K	303.15 K	313.15 K	323.15 K
in 2-butanone	0.00034	–	0.000455	–	0.000519	0.000577	0.000675
in acetone	6.66e-06	–	1.54e-05	–	1.86e-05	2.5e-05	3.64e-05
in acetonitrile	7.35e-05	–	9.53e-05	–	0.00012	0.000146	0.000183
in dichloromethane	3.08e-05	4.23e-05	5.41e-05	6e-05	6.77e-05	–	–
in ethanol	4.73e-05	–	6.07e-05	–	7.59e-05	8.97e-05	0.000104
in ethyl acetate	0.000114	–	0.000137	–	0.000153	0.000178	0.000196
in isopropanol	0.000265	–	0.000302	–	0.000355	0.000405	0.000431
in methanol	5.21e-05	–	6.76e-05	–	9.65e-05	0.00013	0.000163
in n-butanol	0.000156	–	0.0002	–	0.000235	0.000297	0.000371
in n-hexane	1.15e-05	–	2.45e-05	–	4.03e-05	5.54e-05	6.95e-05
in n-propanol	0.000217	–	0.000244	–	0.000255	0.000277	0.00029
in water	4.65e-06	–	5.71e-06	–	7.83e-06	8.34e-06	1.6e-05
